Reference: patent US20030023386A1, “Metabolome profiling methods using chromatographic and spectroscopic data in pattern recognition analysis” (priority 2001, published 2003)

What was measured:
[1] = test system: corn (Zea mays) seedlings (Pioneer 3514); assay: Neural network recognition of treatment from 1H NMR spectra of corn seedling extracts (training/validation cycle); format: in vivo; details: for Network Recognition: validation set sel4c.pat, NN trained with 15 spectra (sel4.pat), meristematic tissue harvested 24 hours after treatment
Experimental: For example, corn (Zea mays) seeds (Pioneer 3514) were set to germinate in paper towel rolls in tap water covered with plastic foil (to minimize evaporation) for 5 days in the growing chamber. Conditions were adjusted to “summer days” (day/night 14/10 hours, controlled temperature 27° C. and humidity 70%). After germination the seedlings were visually inspected. Seedlings that were homogeneous in size and appearance were selected and set to grow in hydroponic Hoagland culture solution.
Each seedling was set in a 50 mL dark bottle in 25 mL Hoagland nutrient solution. The plants were then grown for 5 more days after they had reached the three-leaf stage. At this point the hydroponic solution was changed and the seedlings were treated as follows:
Different herbicide stock solutions in acetone were added in concentrated form to the hydroponic solution or, in the case of control plants with 20 μL acetone, or
The hydroponic solution was replaced by a solution containing different concentrations of herbicides, or just hydroponic nutrient solution for control plants.
All herbicides were technical grade. The plants were returned to the growing chamber after treatment. After 24 hours, the plants were harvested by excising between the coleoptile and the first leaf collar. The first leaf sheet was separated and the meristematic tissue collected was flash frozen in liquid nitrogen in a cryogenic 3 ml tube and stored in the liquid nitrogen freezer until further use.
For example, frozen meristematic tissue was placed in a mortar and liquid nitrogen was added. The pestle was also allowed to cool in the liquid nitrogen. When the liquid nitrogen was evaporated, the plant tissue was pulverized in the mortar. Then, 2.4 mL of 0.25N aq. HCl solution were added to the mortar and the sample was further mixed with the pestle. The suspension was placed into an Eppendorf centrifuge tube and set in ice until all the samples for an experiment were processed for centrifugation. The samples were centrifuged at 14000 g, at 4° C., for 60 minutes. The supernatant was separated from the pellet and 0.8 mL taken and mixed with 0.2 mL D2O (with TSP 0.05 w/v for NMR reference) for the lock signal in the spectrometer. The samples were kept in ice until NMR measurement.
(§1) The proton NMR spectra of plant extracts were recorded using a Bruker AMX 500 NMR spectrometer equipped with a TXI 5 mm probe. The probe temperature was carefully regulated to better than ±0.1 K using the Bruker/Haake variable temperature accessory, and all spectra were recorded under identical experimental conditions, as follows:
The NMR spectra were multiplied with an exponential function (LB parameter=0.5 Hz), Fourier transformed, and manually phase- and baseline-corrected. Spectra were, in an automatic fashion, exported into JCAMP-DX format and converted into pattern vectors for pattern recognition approaches. A window of points was removed from the central part of each vector prior to analysis, to avoid the water residual signal as shown in FIG. 2. Also, data points were removed at the low field and high field portions of the spectral vector because no resonance signals were detectable in these regions.
A first set of 71 spectra, with 3 batches of 6-9 control samples, 2 batches with 15 PURSUIT® treated samples, and one batch each with 6(4) Sethoxydim, Glyphosate, and Diuron treated samples. Two plants fouled after the herbicide treatment phase, and were treated as separate category, exemplifying samples with very different properties. […]

[2] = test system: Corn plants (Zea mays), Pioneer 3514; assay: Herbicide mode-of-action recognition by 1H NMR of plant isolates and neural network analysis (Example 8); format: in vivo; details: for output unit activation: small NN trained with first batch, tested on second batch, four herbicide groups and control; for herbicide treatment group assigned by the neural network: chemically different AHAS inhibitors, output unit activation vs. treatment group
Experimental: Zea mays seeds (Pioneer 3514) were set to germinate in paper towel rolls in tap water for 5 days in the growing chamber. The environment was adjusted to “summer conditions” (day/night ratio of 14/10 hours, regulated temperature of 27° C. and humidity of 70%). After germination the seedlings were visually inspected. Seedlings that were homogeneous in size and appearance were selected, set in 50-ml amber bottles in 25-ml Hoagland nutrient solution (12 ml micronutrients stock solution, 12 ml FeEDTA (5 g/100 ml), 2.4 ml KH2PO4 (1 M), 24 ml MgSO4 (1 M), 60 ml KNO3 (1 M), 60 ml Ca(NO3)2 (1 M), and 60 ml MES buffer (200 mM), diluted to 12 litre with deionized water) and grown for 5 more days, after which they reached the three-leaf stage. At this point, 20 μl of a stock solution of technical grade herbicide in acetone (see Table I) was added to the hydroponic solution or applied to the second leaf (with similar results). The control group of “Untreated Plants” received 20 μl acetone only and all of the plants were returned to the growing chamber.
Twenty-four hours post-treatment, the plants were harvested by excising between the coleoptile and the first leaf collar. At this time, the plants show only slight growth stunting in response to the treatments. The first leaf sheet was separated and the meristematic tissue (approximately 250 to 300 mg per plant) was collected, flash frozen in liquid nitrogen in a cryogenic 3 ml tube, and stored in a liquid nitrogen freezer until further use. The plant meristems were each pulverized in a mortar (under liquid N2), suspended in 2.4 ml of HCl solution (0.25N) and centrifuged at 14000 g, 4° C., for 60 minutes. The NMR samples were prepared from 0.8 ml of the supernatants and 0.2 ml D2O (with TSP 0.05 w/v) and kept on ice.
as §1, with “500 MHz ^1H” for “proton”, “regulated” for “regulated to better than ±0.1 K”, “shown in Table 10:” for “follows:”
The time-domain NMR spectra (“FIDs”) were exponential multiplied (LB=0.5 Hz), Fourier transformed, and then phase- and baseline-corrected manually. The frequency domain were exported by the NMR software as J-CAMP formatted files, which were stored in a UNIX subdirectory for “preprocessing” via NN_Tools, as described below.
The frequency domain NMR spectra were “preprocessed” by NN_Tools as follows: J-CAMP formatted spectra files were converted into vectors (8 k real data points), and the files were renamed (renumbered) in order to be processed by further programs in an automatic fashion. A window of points was cut from the central part (around O1) of each vector to delete the residual water signal. Then points were cut from the low field and high field parts of the vector, because no resonance signals were detectable in these regions. Groups of typically five (5) adjacent points were averaged in histogram fashion (“bining”) and the resulting “preprocessed” spectrum comprised 1080 data points. Finally, vertical scaling was applied to meet the signal amplitude requirements of the neural network software.
The artificial neural network calculations described in the report were performed using a standard software package, the Stuttgart Neural Network Simulator (SNNS), on a Silicon Graphics Inc. (SGI) UNIX workstation. A convenient interface called NN_Tools, was developed in-house to perform NMR spectral preprocessing and to format the raw data for input to SNNS. NN_Tools comprises a set of Perl scripts which form patterns out of NMR spectra that can be input automatically to SNNS for the training, validation, and testing steps of neural network simulation. This free software package (“freeware”) was developed at the Institute for Parallel and Distributed High Performance Systems at the University of Stuttgart, Germany. […]

[3] = test system: corn (Zea mays) seedlings; assay: Blind test: NN recognition of mode-of-action of herbicides not used in training; format: in vivo; details: NN trained only with untreated, PURSUIT, Diuron, Sethoxydim, Glyphosate; different herbicide concentrations
Experimental: As an example, we have used the NN trained and validated as shown in the above Example 3. It was trained to recognize untreated, PURSUIT®, Diuron, Sethoxydim, and Glyphosate treatment. In a blind test, we presented pattern from samples that were treated with no herbicide or different concentrations of various herbicides. In addition to the herbicides used in the training set, two other imidazolinones: ASSERT® and ARSENAL® (imazapyr and imazamethabenz) and two sulfonylureas GLEAN® and OUST® (chlorsulfuron and sulfometuron) were chosen, and the plants were treated as described above. For the blind test of the ANN analysis tool the samples only the two first to batches contributed samples to the training set. Thereby, the neuronal network had to truly recognized new batches with many samples having compound treatments applied that were unknown to the NN. In summary, we found a complete success of the methodology: The neuronal network classifies all untreated samples correctly as untreated, assigns the correct herbicide treatment for all herbicides that have been previously presented to the NN during training, even if such samples originated from batches that were not part of the NN training.
Note that the learning output target for the test spectra is zero in all cases in FIG. 4a and 4b. The total SSE in the calculation was high because of the difference between the given output value (zero) and the calculated value, but the spectra were correctly classified in all cases as belonging to the second output node, which is imazethapyr or AHAS inhibition. Similar results were obtained for the second set of experiments.

[4] = test system: WT corn (Pioneer 3514, PURSUIT sensitive); assay: Phenotypic response of corn lines to PURSUIT in hydroponic medium, wild type line; format: in vivo, Zea mays
Experimental: In these experiments, seedlings from three genetically different corn seed lines were germinated, grown in hydroponic medium, excised, extracted and measured as described before. The plants belong to “wild type” (WT, Pioneer 3514, PURSUIT® sensitive), imidazolinone-tolerant (IT, Gerst 8541 heterozygotic, PURSUIT® tolerant), and imidazolinone-resistant (IR, Pioneer 3395, homozygotic, PURSUIT® resistant) lines.
Two batches with five seedlings each from WT, IR, and IT lines, were grown at various levels of PURSUIT® concentration, as follows in Table 5:
The different lines of corn can be distinguished phenotypically at growing levels of herbicide treatment. […] For WT, herbicidal effects are already observed at the lowest (41 μM) PURSUIT® concentration. On the other hand even the IR lines are affected by concentrations of imidazolinones so high as 4 mM. The plants were harvested after only 24 hours after treatment such that phenotypic differences were restricted to the development (or lack) of the fourth leaf. It is important to harvest at an early stage to avoid that the plants become senescent. The senescence process produces accumulation of a series of metabolites that would obscure the metabolic profile response associated with one specific mode of action.

[5] = test system: IR corn (Pioneer 3395, homozygotic, PURSUIT resistant); details: saturated solution of PURSUIT; cited from earlier work

Row | Compound | Network Recognition [1] | output unit activation [2] | NN classification of treatment / mode-of-action in blind test [3] | herbicide treatment group assigned by the neural network [2] | other results
1 | O=C(O)CNCP(=O)(O)O [Glyphosate] | Glyphosate | ~1 |  |  | 
2 | CC(NC(=O)C(C)NC(=O)C(N)CCP(C)(=O)O)C(=O)O (stereo not drawn) [Bialaphos] |  |  |  |  | signs of damage of treated plants ([2]; 24-hours post-application, bialaphos formulation): # presented much stronger signs of damage than all the others. Formulations usually produce an effect of faster absorption and sometimes translocation that increases the metabolic response.
3 | COc1nc(C)nc(NC(=O)NS(=O)(=O)c2ccccc2Cl)n1 [GLEAN®, chlorsulfuron] |  |  | correctly assigned as AHAS inhibitors | imazethapyr | 
4 | CCC/C(=N\OCC)C1=C(O)CC(CC(C)SCC)CC1=O (stereo not drawn) [Sethoxydim] | Sethoxydim | ~1 |  |  | 
5 | imazamethabenz [ASSERT®] |  |  | correctly assigned as AHAS inhibitors | imazethapyr | 
6 | CC(C)C1(C)N=C(c2ncccc2C(=O)O)NC1=O (stereo not drawn) [ARSENAL®, imazapyr] |  |  | correctly assigned as AHAS inhibitors | imazethapyr | 
7 | Cc1cc(C)nc(NC(=O)NS(=O)(=O)c2ccccc2C(=O)O)n1 [OUST®, sulfometuron] |  |  | correctly assigned as AHAS inhibitors | imazethapyr | 
8 | CN(C)C(=O)Nc1ccc(Cl)c(Cl)c1 [Diuron] | Diuron | ~1 |  |  | NMR spectral changes of treated samples versus controls ([1]; 1H NMR of corn seedling extracts): most changes versus controls in the resonance region of the sugar-proton
9 | CCc1cnc(C2=NC(C)(C(C)C)C(=O)N2)c(C(=O)O)c1 (stereo not drawn) [PURSUIT ®, imazethapyr] | PURSUIT ® | ~1 |  |  | PURSUIT concentration at which herbicidal effects are observed ([4]; WT line, lowest concentration tested, hydroponic): ≤ 41 µM; phenotypic response observed ([4]; growing levels of herbicide treatment, within 48 hours): total arrest on the growth of the plants and their wilting; phenotypic response of IR plants [5]: growth arrest
